Patent US20120264793A1, “Pharmaceutical Use of 2',2-Bis-Thiazole Non-Nucleoside Compounds as Hepatitis C Virus Inhibitor” (Shanghai Institute of Materia Medica, Chinese Academy of …, priority 2009, published 2012)
Like-named read-outs stand apart in the source and are kept apart here.

Assays:
[1] = test system: HCV (J399E) inserted with enhanced green fluorescent protein (EGFP); experiment: microbe, parasite or virus in culture; format: cell-based, Hepatitis C Virus; conditions: for IC50: read-out: IC50 (concentration at which 50% of the replication of HCV was inhibited); for SI (bioactivity selective index): from CC50 and IC50 in Huh7.5.1 cells, SI greater than 2 means effective
Description: The in vitro anti-HCV activity assay of the 2′,2-bis-thiazole non-nucleoside compounds at cellular level was performed by using an anti-HCV activity assay protocol recognized by one skilled in the art.
The variation of the green fluorescence intensity was recorded on a microplate reader and cytotoxicity was measured at the same time, so as to evaluate the influence of the compound on the replication activity of HCV.
(§1) Compounds to be tested were dissolved in DMSO to prepare a stock solution before the test. Upon using, the stock solution was diluted to a desired concentration with DMEM (Dulbecco's Modified Eagle Media, purchased from GibcoBRL company (Life Technologies, Grand Island, N.Y., USA)) containing 10% FBS (fetal bovine serum, purchased from Hyclone company (Logan, Utah, USA)).
Positive control: ribavirin (purchased from Sigma/Aldrich). It was dissolved in DMSO to prepare a stock solution and stored at −20° C. before use, and diluted to a desired concentration upon using.
(§2) Huh7.5.1 cells (10% FBS, DMEM) at 10^5 cells/ml were inoculated on a 96-well plate (Costar 3904) with 100 μl per well. 24 h later, the supernatant of the culture media was sucked out, and 50 μl of virus supernatant with MOI=0.1 was added. 8 h later, 50 μl of the testing compound solution was added and 100 μl of culture media was supplemented. After incubation for 72 h, the supernatant was sucked out, and read on a fluorescent microplate reader (Ex=488 nm, Em=516 nm). Then each well was added with 20 μl of MTT (5 mg/ml) and additional 50 μl of culture media. 4 h later, 100 μl of MTT lysis solution was added. 6 h later, reading was performed at a wavelength of 570 nm.

Huh7.5.1 cells = experiment: in vitro; format: cell-based
Description: (§3) The anti-HCV activity assay was performed by using Huh7.5.1 cells (presented by WUHAN INSTITUTE of VIROLOGY, CHINESE ACADEMY OF SCIENCES) infected by HCV (J399E) inserted with enhanced green fluorescent protein (EGFP). The variation of the green fluorescence intensity was recorded on a microplate reader and cytotoxicity was measured at the same time, so as to evaluate the influence of the compound on the replication activity of HCV.
as §1, with “USA)). The final concentration of DMSO for cell culture was less than 0.25% (V/V, Volume to Volume), and such DMSO concentration would not affect the growth of cells.” for “USA)).”
as §2

in vitro = format: cell-based; conditions: human
Description: as §3
as §1, with “USA)). The final concentration of DMSO for cell culture was less than 0.25% (V/V, Volume to Volume), and such DMSO concentration would not affect the growth of cells.” for “USA)).”
as §2

[2] = HCV (J399E)-EGFP infected Huh7.5.1 cells, MOI=0.1, 72 h incubation
[3] = Hepatitis C virus, Huh-7.5.1, 72 h

Row | SMILES | IC50 [1, 2] | CC50 (Huh7.5.1 cells) | IC50 [1, 3] | SI (bioactivity selective index) [1] | CC50 at 72 h (in vitro)
1 | CCOC(=O)CCc1nc(-c2nccs2)sc1CC(C)C [Compound C324-5] | 36.6 µM | > 100 µM | – | – | –
2 | CC(C)Cc1sc(-c2nccs2)nc1C(=O)NCc1ccccc1 [Compound C357] | – | – | 2.8 µM | >11.9 | > 33.3 µM
3 | Cc1cnc(-c2nc(C(=O)NCc3ccc(F)cc3)c(CC(C)C)s2)s1 [Compound W28MF] | – | – | 0.8 µM | >125 | > 100 µM
4 | O=C(O)c1nc(-c2nccs2)sc1Cc1ccccc1 [Compound C302] | 25.7 µM | 67.5 µM | – | – | –
5 | CCOC(=O)/C=C/c1nc(-c2nccs2)sc1CC(C)C [Compound C322-2] | 9.8 µM | > 100 µM | – | – | –
6 | CNC(=O)c1nc(-c2nccs2)sc1CC(C)C [Compound C281] | 13.6 µM | > 100 µM | – | – | –
7 | CCC(O)c1nc(-c2nccs2)sc1CC(C)C (centres unmarked) [Compound C282-2] | – | – | 2.8 µM | >35.7 | > 100 µM
8 | NC(=O)c1ncn([C@@H]2O[C@H](CO)[C@@H](O)[C@H]2O)n1 [ribavirin, reference compound] | – | – | 48.3 µM | 9.3 | 449 µM
9 | CC(C)Cc1sc(-c2nccs2)nc1C(=O)Nc1ccccc1 [Compound C343] | 19.1 µM | > 100 µM | – | – | –
10 | CC(C)Cc1sc(-c2nccs2)nc1C(N)=O [Compound C267] | 4.9 µM | > 100 µM | – | – | –
11 | CC(C)Cc1sc(-c2nccs2)nc1C(=O)NCc1ccc(F)cc1 [Compound W28F] | – | – | 7.5 µM | 4.9 | 36.9 µM
12 | CC(C)Cc1sc(-c2nccs2)nc1CNC(=O)c1nc(-c2nccs2)sc1CC(C)C [Compound C503] | – | – | 1.4 µM | >71 | > 100 µM
13 | CCC(=O)c1nc(-c2nccs2)sc1CC(C)C [Compound C280-4] | 8.9 µM | > 100 µM | – | – | –
